Earlier results, collected in patent US10251409B2, “Mixtures of matter” (SYMRISE AG, priority 2013, dated 2019).

Settings: compared with sugar

In the case of C=C1C[C@@]23CC[C@H]4[C@@](C)(CCC[C@@]4(C)C(=O)O[C@@H]4O[C@H](CO)[C@@H](O)[C@H](O)[C@H]4O)[C@@H]2CC[C@]1(O[C@@H]1O[C@H](CO)[C@@H](O)[C@H](O[C@@H]2O[C@H](CO)[C@@H](O)[C@H](O)[C@H]2O)[C@H]1O[C@@H]1O[C@H](CO)[C@@H](O)[C@H](O)[C@H]1O)C3 [rebaudioside A], the “Sweetening power relative to sugar” value is given as “up to 450 times”.
